The source made the active and inactive calls. No cut-off for these calls is given here.
Tests used:
[1] = target: Cyclin-dependent kinase 2/cyclin E1 (Homo sapiens, UniProt P24941); assay: Inhibition of recombinant human CDK2/cyclin E after 40 mins by ADP-Glo reagent based luminescence assay; format: protein-complex assay
MDA-MB-468 [2] = assay: Induction of apoptosis in human MDA-MB-468 cells assessed as early apoptotic cells at 15 uM after 12 hrs by Annexin V-FITC/PI staining based flow cytometry (reference value: 5.74%); format: functional
[3] = target: Cyclin-dependent kinase 2 (Homo sapiens) (UniProt P24941); assay: Inhibition of CDK2 in human MDA-MB-468 cells assessed as increase in cleaved PARP expression level at 15 uM measured up to 36 hrs by Western blot analysis; format: cell-based
CDK6/cyclin D3 = CDK6/cyclin D3 (Homo sapiens, UniProt Q00534); assay: Inhibition of recombinant human CDK6/cyclin D3 after 40 mins by ADP-Glo reagent based luminescence assay; format: protein-complex assay
CDK6/cyclin D3, sequence (P30281 whole entry): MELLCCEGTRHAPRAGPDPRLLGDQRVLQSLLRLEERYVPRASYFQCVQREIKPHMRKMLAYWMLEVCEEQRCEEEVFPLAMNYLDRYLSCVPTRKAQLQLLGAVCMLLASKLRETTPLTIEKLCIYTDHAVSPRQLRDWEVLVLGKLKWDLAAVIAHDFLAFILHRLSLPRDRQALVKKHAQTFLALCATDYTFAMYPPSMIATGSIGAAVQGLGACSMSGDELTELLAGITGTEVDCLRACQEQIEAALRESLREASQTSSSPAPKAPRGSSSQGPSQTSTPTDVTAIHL
CDK6/cyclin D3, sequence (Q00534 whole entry): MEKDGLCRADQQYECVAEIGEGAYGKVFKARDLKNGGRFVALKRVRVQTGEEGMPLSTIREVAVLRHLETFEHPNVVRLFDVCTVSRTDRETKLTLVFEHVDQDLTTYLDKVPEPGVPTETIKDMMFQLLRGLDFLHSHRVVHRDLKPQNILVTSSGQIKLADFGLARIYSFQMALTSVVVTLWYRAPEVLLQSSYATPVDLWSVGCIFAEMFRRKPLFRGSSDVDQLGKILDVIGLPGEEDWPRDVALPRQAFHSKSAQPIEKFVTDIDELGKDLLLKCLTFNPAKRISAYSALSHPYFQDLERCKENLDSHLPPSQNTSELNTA

MDA-MB-468 [4] = assay: Antiproliferative activity against human MDA-MB-468 cells after 24 hrs by MTT assay; format: functional, cell-based; conditions: MDA-MB-468, 24 h
MDA-MB-468 [5] = assay: Induction of apoptosis in human MDA-MB-468 cells assessed as necrotic cells at 15 uM after 12 hrs by Annexin V-FITC/PI staining based flow cytometry (reference value: 0.34%); format: functional
MDA-MB-468 [6] = assay: Induction of apoptosis in human MDA-MB-468 cells assessed as early apoptotic cells at 15 uM after 6 hrs by Annexin V-FITC/PI staining based flow cytometry (reference value: 5.74%); format: functional
MDA-MB-231 = assay: Growth inhibition of human MDA-MB-231 cells at 20 uM by MTT assay; format: functional, cell-based
MCF7 = assay: Growth inhibition of human MCF7 cells at 20 uM by MTT assay; format: functional, cell-based
MDA-MB-468 [7] = assay: Induction of morphological changes in human MDA-MB-468 cells at 15 uM after 6 to 24 hrs by Hoechst 33258 staining based fluorescence microscopy; format: functional, cell-based
MDA-MB-468 [8] = assay: Induction of apoptosis in human MDA-MB-468 cells assessed as necrotic cells at 15 uM after 24 hrs by Annexin V-FITC/PI staining based flow cytometry (reference value: 0.34%); format: functional
MDA-MB-468 [9] = assay: Effect on cyclin E level in human CDK2-siRNA MDA-MB-468 cells at 15 uM by Western blot analysis; format: functional, cell-based
MDA-MB-468 [10] = assay: Induction of apoptosis in human MDA-MB-468 cells assessed as late apoptotic cells at 15 uM after 24 hrs by Annexin V-FITC/PI staining based flow cytometry (reference value: 2.49%); format: functional
MDA-MB-468 [11] = assay: Induction of apoptosis in human MDA-MB-468 cells assessed as viable cells at 15 uM after 24 hrs by Annexin V-FITC/PI staining based flow cytometry (reference value: 91.43%); format: functional; conditions: MDA-MB-468, 24 h, read-out: Activity
MDA-MB-468 [12] = assay: Effect on bim level in human CDK2-siRNA MDA-MB-468 cells at 15 uM by Western blot analysis; format: functional, cell-based
MDA-MB-468 [13] = assay: Cell cycle arrest in human MDA-MB-468 cells assessed as accumulation at G1 phase at 15 uM after 24 hrs by propidium iodide staining based flow cytometry (reference value: 46.38%); format: functional
CDK7/Cyclin H/MNAT1 = CDK7/Cyclin H/MNAT1 (Homo sapiens, UniProt P50613); assay: Inhibition of recombinant human CDK7/cyclin H/MNAT1 after 40 mins by ADP-Glo reagent based luminescence assay; format: protein-complex assay
CDK7/Cyclin H/MNAT1, sequence (P51946 whole entry): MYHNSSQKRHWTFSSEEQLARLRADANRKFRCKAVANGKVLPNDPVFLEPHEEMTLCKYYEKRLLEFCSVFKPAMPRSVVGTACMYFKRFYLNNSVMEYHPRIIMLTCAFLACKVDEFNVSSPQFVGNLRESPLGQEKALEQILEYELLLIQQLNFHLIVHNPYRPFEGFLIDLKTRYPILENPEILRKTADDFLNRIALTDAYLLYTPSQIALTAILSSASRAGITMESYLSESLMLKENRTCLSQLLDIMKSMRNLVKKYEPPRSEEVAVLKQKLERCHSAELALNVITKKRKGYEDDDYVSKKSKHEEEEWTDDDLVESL
CDK7/Cyclin H/MNAT1, sequence (P50613 whole entry): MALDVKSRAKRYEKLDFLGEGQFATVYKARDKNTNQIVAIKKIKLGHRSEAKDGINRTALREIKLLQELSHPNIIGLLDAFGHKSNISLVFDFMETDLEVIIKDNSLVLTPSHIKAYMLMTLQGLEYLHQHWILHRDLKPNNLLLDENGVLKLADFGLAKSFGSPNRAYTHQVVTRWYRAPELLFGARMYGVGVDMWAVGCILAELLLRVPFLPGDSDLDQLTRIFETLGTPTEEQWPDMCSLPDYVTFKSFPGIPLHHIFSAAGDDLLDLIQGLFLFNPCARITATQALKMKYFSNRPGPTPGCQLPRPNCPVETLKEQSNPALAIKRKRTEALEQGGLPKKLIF
CDK7/Cyclin H/MNAT1, sequence (P51948 whole entry, further chain): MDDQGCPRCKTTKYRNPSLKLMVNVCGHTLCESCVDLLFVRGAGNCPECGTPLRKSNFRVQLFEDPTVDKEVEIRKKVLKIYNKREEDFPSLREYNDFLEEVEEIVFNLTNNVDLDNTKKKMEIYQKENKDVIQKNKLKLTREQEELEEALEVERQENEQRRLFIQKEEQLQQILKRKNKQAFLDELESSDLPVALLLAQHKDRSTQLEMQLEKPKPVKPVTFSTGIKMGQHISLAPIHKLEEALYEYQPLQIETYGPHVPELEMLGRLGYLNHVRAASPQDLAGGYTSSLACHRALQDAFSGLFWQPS

MDA-MB-468 [14] = assay: Antiproliferative activity against human MDA-MB-468 cells after 72 hrs by MTT assay; format: functional, cell-based; conditions: MDA-MB-468, 72 h
MDA-MB-468 [15] = assay: Growth inhibition of human MDA-MB-468 cells at 20 uM by MTT assay; format: functional, cell-based
MDA-MB-468 [16] = assay: Cell cycle arrest in human MDA-MB-468 cells assessed as accumulation at G2 phase at 15 uM after 24 hrs by propidium iodide staining based flow cytometry (reference value: 14.16%); format: functional
MDA-MB-468 [17] = assay: Induction of apoptosis in human MDA-MB-468 cells assessed as viable cells at 15 uM after 12 hrs by Annexin V-FITC/PI staining based flow cytometry (reference value: 91.43%); format: functional; conditions: MDA-MB-468, 12 h, read-out: Activity
MDA-MB-468 [18] = assay: Induction of apoptosis in human MDA-MB-468 cells assessed as late apoptotic cells at 15 uM after 6 hrs by Annexin V-FITC/PI staining based flow cytometry (reference value: 2.49%); format: functional
[19] = target: Cyclin-dependent kinase 4/cyclin D1 (Homo sapiens, UniProt P11802); assay: Inhibition of recombinant human CDK4/cyclin D1 after 40 mins by ADP-Glo reagent based luminescence assay; format: protein-complex assay
Cyclin-dependent kinase 4/cyclin D1, sequence (P11802 whole entry): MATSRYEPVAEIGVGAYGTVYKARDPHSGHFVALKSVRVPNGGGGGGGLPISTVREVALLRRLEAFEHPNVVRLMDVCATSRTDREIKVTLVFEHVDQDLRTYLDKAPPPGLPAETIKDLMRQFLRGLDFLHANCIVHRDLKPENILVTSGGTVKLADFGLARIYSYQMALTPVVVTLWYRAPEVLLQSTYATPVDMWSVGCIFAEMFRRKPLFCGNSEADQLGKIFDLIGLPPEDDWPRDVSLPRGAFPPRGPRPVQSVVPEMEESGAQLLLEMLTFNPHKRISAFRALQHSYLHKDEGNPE
Cyclin-dependent kinase 4/cyclin D1, sequence (P24385 whole entry, further chain): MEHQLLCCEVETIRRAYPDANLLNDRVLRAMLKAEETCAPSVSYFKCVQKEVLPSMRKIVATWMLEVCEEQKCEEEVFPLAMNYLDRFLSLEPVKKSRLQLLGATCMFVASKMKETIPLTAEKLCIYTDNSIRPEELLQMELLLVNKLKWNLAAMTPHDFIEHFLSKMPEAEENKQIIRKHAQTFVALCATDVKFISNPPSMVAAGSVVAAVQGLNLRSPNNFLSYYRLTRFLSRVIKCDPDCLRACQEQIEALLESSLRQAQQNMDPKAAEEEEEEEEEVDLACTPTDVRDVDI

MDA-MB-468 [20] = assay: Induction of apoptosis in human MDA-MB-468 cells assessed as necrotic cells at 15 uM after 6 hrs by Annexin V-FITC/PI staining based flow cytometry (reference value: 0.34%); format: functional
[21] = target: Cyclin-dependent kinase 2 (Homo sapiens) (UniProt P24941); assay: Inhibition of CDK2 in human MDA-MB-468 cells assessed as decrease in caspase 3 expression level at 15 uM measured up to 36 hrs by Western blot analysis; format: cell-based
[22] = target: Cyclin-dependent kinase 2 (Homo sapiens) (UniProt P24941); assay: Inhibition of CDK2 in human MDA-MB-468 cells assessed as decrease in CDK2 phosphorylation at […] residues at 15 uM after 12 to 26 hrs by Western blot analysis; format: cell-based
[23] = target: Cyclin-dependent kinase 2 (Homo sapiens) (UniProt P24941); assay: Inhibition of CDK2 in human MDA-MB-468 cells assessed as decrease in cyclin E phosphorylation at Thr62 residues at 15 uM after 12 to 26 hrs by Western blot analysis; format: cell-based
[24] = target: Cyclin-dependent kinase 2 (Homo sapiens) (UniProt P24941); assay: Inhibition of CDK2 in human MDA-MB-468 cells assessed as increase in bim expression level at 15 uM measured up to 36 hrs by Western blot analysis; format: cell-based
[25] = target: Cyclin-dependent kinase 2 (Homo sapiens) (UniProt P24941); assay: Inhibition of CDK2 in human MDA-MB-468 cells assessed as increase in bax expression level at 15 uM measured up to 36 hrs by Western blot analysis; format: cell-based
MDA-MB-468 [26] = assay: Induction of apoptosis in human MDA-MB-468 cells assessed as early apoptotic cells at 15 uM after 24 hrs by Annexin V-FITC/PI staining based flow cytometry (reference value: 5.74%); format: functional
WM 266-4 = assay: Growth inhibition of human WM266.4 cells at 20 uM by MTT assay; format: functional, cell-based
MDA-MB-468 [27] = assay: Cell cycle arrest in human MDA-MB-468 cells assessed as accumulation at S phase at 15 uM after 24 hrs by propidium iodide staining based flow cytometry (reference value: 39.46%); format: functional
MDA-MB-468 [28] = assay: Induction of apoptosis in human MDA-MB-468 cells assessed as late apoptotic cells at 15 uM after 12 hrs by Annexin V-FITC/PI staining based flow cytometry (reference value: 2.49%); format: functional
MDA-MB-468 [29] = assay: Antiproliferative activity against human MDA-MB-468 cells after 48 hrs by MTT assay; format: functional, cell-based; conditions: MDA-MB-468, 48 h
MDA-MB-468 [30] = assay: Induction of apoptosis in human MDA-MB-468 cells assessed as viable cells at 15 uM after 6 hrs by Annexin V-FITC/PI staining based flow cytometry (reference value: 91.43%); format: functional; conditions: MDA-MB-468, 6 h, read-out: Activity
HepG2 = assay: Growth inhibition of human HepG2 cells at 20 uM by MTT assay; format: functional, cell-based
[31] = target: Cyclin-dependent kinase 2 (Homo sapiens) (UniProt P24941); assay: Inhibition of CDK2 in human MDA-MB-468 cells assessed as increase in cleaved caspase 3 expression level at 15 uM measured up to 36 hrs by Western blot analysis; format: cell-based
786-0 = assay: Growth inhibition of human 786-O cells at 20 uM by MTT assay; format: functional, cell-based

Structure (SMILES): Cc1ccc(C(=O)NC2CCN(c3nccc(Nc4ccc(F)cc4)n3)CC2)cc1
- IC50 [1]: 276 nM

Structure (SMILES): COc1ccc(Nc2ccnc(N3CCC(NC(=O)c4cccc(Cl)c4)CC3)n2)cc1
- IC50 [1]: 313 nM

Structure (SMILES): Cc1ccccc1Nc1ccnc(N2CCC(NC(=O)c3ccc(F)cc3)CC2)n1
- IC50 [1]: 459 nM

Structure (SMILES): O=C(NC1CCN(c2nccc(Nc3ccc(F)cc3)n2)CC1)c1cccc(Cl)c1
- IC50 [1]: 206 nM

Structure (SMILES): COc1ccc(Nc2ccnc(N3CCC(NC(=O)c4ccccc4F)CC3)n2)cc1
- IC50 [1]: 280 nM

Structure (SMILES): COc1ccc(C(=O)NC2CCN(c3nc(C)cc(Nc4ccc(F)cc4)n3)CC2)cc1
- IC50 [1]: 54.2 nM

Structure (SMILES): Cc1ccc(C(=O)NC2CCN(c3nccc(Nc4ccccc4C)n3)CC2)cc1
- IC50 [1]: 567 nM

Structure (SMILES): Cc1ccc(C(=O)NC2CCN(c3nc(C)cc(Nc4ccc(F)cc4)n3)CC2)cc1
- IC50 [1]: 288 nM

Structure (SMILES): Cc1cccc(C(=O)NC2CCN(c3nc(C)cc(Nc4ccc(F)cc4)n3)CC2)c1
- IC50 [1]: 380 nM

Structure (SMILES): Cc1cc(Nc2ccc(F)cc2)nc(N2CCC(NC(=O)c3cccc(Cl)c3)CC2)n1
- IC50 [1]: 287 nM

Structure (SMILES): O=C(NC1CCN(c2nccc(Nc3ccc(F)cc3)n2)CC1)c1ccc(F)cc1
- IC50 [1]: 151 nM

Structure (SMILES): COc1ccc(Nc2ccnc(N3CCC(NC(=O)c4ccc(F)cc4)CC3)n2)cc1
- IC50 [1]: 405 nM

Structure (SMILES): COc1ccc(Nc2ccnc(N3CCC(NC(=O)c4cccc(C)c4)CC3)n2)cc1
- IC50 [1]: 474 nM

Structure (SMILES): COc1ccc(C(=O)NC2CCN(c3nccc(Nc4ccc(F)cc4)n3)CC2)cc1
- Activity (MDA-MB-468 [2]): 3.82%
- inhibition [3]: Active
- IC50 (CDK6/cyclin D3): 54.3 to 73.7 nM
- IC50 (MDA-MB-468 [4]): 14300 nM
- Activity (MDA-MB-468 [5]): 2.73%
- Activity (MDA-MB-468 [6]): 4.62%
- growth inhibition (GI) (MDA-MB-231): Active
- growth inhibition (GI) (MCF7): Active
- IC50 [1]: 45.8 to 54.3 nM
- Activity (MDA-MB-468 [7]): Active
- Activity (MDA-MB-468 [8]): 3.46%
- Activity (MDA-MB-468 [9]): inactive
- Activity (MDA-MB-468 [10]): 24.68%
- viability at 15 µM (MDA-MB-468 [11]): 65.8%
- Activity (MDA-MB-468 [12]): inactive
- Activity (MDA-MB-468 [13]): 65.11%
- IC50 (CDK7/Cyclin H/MNAT1): 89.8 nM
- IC50 (MDA-MB-468 [14]): 5740 nM
- growth inhibition (GI) (MDA-MB-468 [15]): Active
- Activity (MDA-MB-468 [16]): 9.64%
- viability at 15 µM (MDA-MB-468 [17]): 76.6%
- Activity (MDA-MB-468 [18]): 5.28%
- IC50 [19]: 278 nM
- Activity (MDA-MB-468 [20]): 0.87%
- inhibition [21]: Active
- inhibition [22]: Active
- inhibition [23]: Active
- inhibition [24]: Active
- inhibition [25]: Active
- Activity (MDA-MB-468 [26]): 6.02%
- growth inhibition (GI) (WM 266-4): Active
- Activity (MDA-MB-468 [27]): 25.25%
- Activity (MDA-MB-468 [28]): 16.82%
- IC50 (MDA-MB-468 [29]): 8960 nM
- viability at 15 µM (MDA-MB-468 [30]): 89.2%
- growth inhibition (GI) (HepG2): Active
- inhibition [31]: Active
- growth inhibition (GI) (786-0): Active

Structure (SMILES): COc1ccc(C(=O)NC2CCN(c3nccc(Nc4ccccc4C)n3)CC2)cc1
- IC50 [1]: 286 nM

Structure (SMILES): COc1ccc(Nc2ccnc(N3CCC(NC(=O)c4ccc(C)cc4)CC3)n2)cc1
- IC50 [1]: 378 nM

Structure (SMILES): Cc1cccc(C(=O)NC2CCN(c3nccc(Nc4ccc(F)cc4)n3)CC2)c1
- IC50 [1]: 386 nM

Structure (SMILES): Cc1cc(Nc2ccc(F)cc2)nc(N2CCC(NC(=O)c3ccc(F)cc3)CC2)n1
- IC50 [1]: 153 nM

Structure (SMILES): COc1ccc(Nc2ccnc(N3CCC(NC(=O)c4ccc(OC)cc4)CC3)n2)cc1
- IC50 [1]: 276 nM

Structure (SMILES): Cc1ccccc1Nc1ccnc(N2CCC(NC(=O)c3ccccc3F)CC2)n1
- IC50 [1]: 399 nM

Structure (SMILES): Cc1cc(Nc2ccc(F)cc2)nc(N2CCC(NC(=O)c3ccccc3F)CC2)n1
- IC50 [1]: 205 nM

Structure (SMILES): O=C(NC1CCN(c2nccc(Nc3ccc(F)cc3)n2)CC1)c1ccccc1F
- IC50 [1]: 241 nM

Structure (SMILES): Cc1ccccc1Nc1ccnc(N2CCC(NC(=O)c3cccc(Cl)c3)CC2)n1
- IC50 [1]: 501 nM

Structure (SMILES): Cc1cccc(C(=O)NC2CCN(c3nccc(Nc4ccccc4C)n3)CC2)c1
- IC50 [1]: 288 nM
